For 4 compounds, IC50 results are on record in ChEMBL document CHEMBL1131952, “Synthesis of tetrasubstituted bicyclo[3.2.1]octenes as potential inhibitors of influenza virus sialidase” (Bioorg Med Chem Lett, 1999).

One test has as its system Influenza A virus. Briefly: Inhibitory activity against sialidase of influenza A. Format: functional, organism-based.
The next test relates to Influenza B virus. The test is described as follows: Inhibitory activity against sialidase of influenza B. It is filed as functional, organism-based.

One may read the IC50 as the concentration that inhibits the measured activity by half. A high value points to a need for much substance.

On to `CCC(CC)O[C@@H]1C=C(C(=O)O)[C@@H]2CC[C@@]1(NC(C)=O)[C@H]2O`, for which the results for the IC50 in the test with Influenza A virus and with Influenza B virus were 80 µM and 340 µM, respectively.
The like results for `CCC(CC)O[C@@H]1C=C(C(=O)O)[C@@H]2CC[C@@]1(C(=O)O)[C@H]2O` were, in that order, over 670 µM and over 670 µM.
With `CCC(CC)O[C@@H]1C=C(C(=O)O)[C@@H]2CC[C@@]1(C(=O)OC)[C@H]2O`, the IC50 was determined as 99 µM with Influenza A virus and 83 µM in the test with Influenza B virus.
The matching figures for `CC(=O)N[C@H]1[C@H]([C@H](O)[C@H](O)CO)OC(C(=O)O)=C[C@@H]1O` [NEU5AC2EN]: 2.8 µM and 3 µM.
